{"source": "patent US20030228277A1", "about": "“Use of ROM production and release inhibitors to treat and prevent intraocular damage” (priority 2002, published 2003)", "key": {"NADPH oxidase": {"target": "T1, NADPH oxidase (Homo sapiens, UniProt P04839)", "T1 construct": "host or cells: phagocytes (not specified further)", "conditions": "membrane bound enzyme converting oxygen to superoxide; cited from earlier work"}, "[1]": {"tested_on": "diabetic patient manifesting proliferative diabetic retinopathy", "conditions": "ophthalmic gel containing 0.5% histamine dihydrochloride; compared with patients who received no histamine", "source_text": "The purpose of this treatment is to reduce the extent of proliferative diabetic retinopathy, to prevent further manifestations of the disease after removal of any extraretinal neovascularized tissue, and to reduce the likelihood of retinal detachment.\nA patient presenting proliferative diabetic retinopathy receives the histamine treatment described herein in combination with surgical treatment of the neovascularized tissue.\nOnce diagnosed as entering the proliferative stage, the patient receives a full ophthalmic examination to establish a baseline of ocular health. […]\nAfter treatment, the patients' eyes are examined on days one (1), two (2), seven (7), fifteen (15), thirty (30) and sixty (60). On each examination day, the patient is monitored. Additionally, the patient is monitored for posterior vitreous detachments using indirect ophthalmoscopy with scleral depression. Finally, the extent of PDR presented by the patient is continuously monitored through periodic retinal examinations and fluorescein angiograms to monitor the extent of venous beading, IRMA, retinal ischemia, neovascularization, and vitreal hemorrhage. […]"}, "[2]": {"tested_on": "patient suffering from PDR", "conditions": "approximately 100 μl of a 2% histamine-containing solution injected intraocularly, repeated every two weeks", "source_text": "As a preliminary step a patient is identified as suffering from PDR. […] The patient is monitored thereafter. The treatment is repeated every two weeks."}, "macular hole formation": {"tested_on": "macular hole formation", "conditions": "200 μl intravitreal ophthalmic solution containing 5% histamine dihydrochloride; compared with untreated eyes", "description": "The described methods contemplate the use of histamine to reduce ROM levels and so as to eliminate the conditions which result in macular hole formation. Following the preliminary examination, an intravitreal injection of histamine dihydrochloride is given to patient's affected eye. If both eyes are affected, they may be treated separately. The eye is injected with the histamine ophthalmic solution intravitreally to promote a reduction of ROM levels. The eye to be treated is injected intravitreally with 200 μl of a histamine ophthalmic solution containing 5% histamine dihydrochloride to prevent or reduce ROM mediate intraocular damage."}, "[3]": {"tested_on": "diabetic patient manifesting preproliferative diabetic retinopathy", "conditions": "intravitreal ophthalmic solution containing 1% histamine diphosphate; compared to an untreated individual", "procedure": "A diabetic patient manifesting preproliferative diabetic retinopathy is treated for this complication of diabetes mellitus through the intravitreal injection of a histamine compound.\nThis increased surveillance should include periodic retinal examinations and fluorescein angiograms to monitor the extent of venous beading, IRMA, and retinal ischemia.\nWhen preproliferative diabetic retinopathy begins reaching the proliferative stage, treatment with an ROM inhibitor or scavenger is commenced. This stage is defined as the presence of venous beading in 2 or more quadrants, IRMA in one or more quadrants, and/or microaneurysm and dot hemorrhages in all quadrants. Once these indicia are present, the administration of a ROM inhibitor or scavenger is initiated.\nThe patient receives a full ophthalmic examination to establish a baseline of ocular health. […]\nAfter treatment, the patient's eyes are examined on days one (1), two (2), seven (7), fifteen (15), thirty (30) and sixty (60). On each examination day, the patient is monitored. Additionally, the patient is monitored for posterior vitreous detachments using indirect ophthalmoscopy with scleral depression. Finally, the extent of PDR presented by the patient is continuously monitored through periodic retinal examinations and fluorescein angiograms to monitor the extent of venous beading, IRMA, and retinal ischemia."}, "[4]": {"tested_on": "patient manifesting age-related macular degeneration", "test": "Treatment of age-related macular degeneration, intravitreal ROM scavenger", "format": "in vivo, human", "conditions": "intravitreal ophthalmic solution containing 0.75% superoxide dismutase; compared to untreated eyes", "description": "A patient manifesting age-related macular degeneration is treated with an intravitreal injection of a scavenger of ROM, namely superoxide dismutase.\nOnce a patient reaches the age of 60, increased ophthalmic surveillance is performed to detect the presence of ADM.\nWhen ADM is diagnosed, a regime of histamine treatment is commenced coupled with or without other treatments such as photocoagulation.\nFollowing the preliminary examination, an intravitreal injection of superoxide dismutase is given to the patient's affected eye manifesting ADM. […] The eye to be treated is injected intravitreally with an ophthalmic solution containing 0.75% superoxide dismutase to prevent or reduce ROM mediate intraocular damage.\nBecause of the possibility of reoccurrence, the patient should return for periodic examinations on a monthly basis thereafter. […] Additional superoxide dismutase and/or laser treatments may be required if indicia of reoccurring neovascularization are observed."}}, "data": [{"compound": "NC(=O)C1=CN([C@@H]2O[C@H](COP(=O)(O)OP(=O)(O)OC[C@H]3O[C@@H](n4cnc5c(N)ncnc54)[C@H](O)[C@@H]3O)[C@@H](O)[C@H]2O)C=CC1", "note": "[NADH]", "values": [{"measurement": "Km", "setting": "NADPH oxidase", "result": 450, "unit": "µM"}]}, {"compound": "NC(=O)C1=CN([C@@H]2O[C@H](COP(=O)(O)OP(=O)(O)OC[C@H]3O[C@@H](n4cnc5c(N)ncnc54)[C@H](OP(=O)(O)O)[C@@H]3O)[C@@H](O)[C@H]2O)C=CC1", "note": "[NADPH]", "values": [{"measurement": "Km", "setting": "NADPH oxidase", "result": 45, "unit": "µM"}]}, {"compound": "Cl.Cl.NCCc1c[nH]cn1", "note": "[histamine dihydrochloride]", "values": [{"measurement": "development of posterior vitreous detachments", "setting": "[1]", "result": "reduction in the development of posterior vitreous detachments"}]}, {"compound": "NCCc1c[nH]cn1", "note": "[histamine]", "values": [{"measurement": "symptoms associated with PDR", "setting": "[2]", "result": "reduction in symptoms associated with PDR"}, {"measurement": "incidence of macular hole formation", "setting": "macular hole formation", "result": "reduction in the incidence of macular hole formation"}]}, {"compound": "histamine diphosphate", "values": [{"measurement": "development of proliferative diabetic retinopathy", "setting": "[3]", "result": "reduction in the development of proliferative diabetic retinopathy"}]}, {"compound": "superoxide dismutase", "values": [{"measurement": "ocular health", "setting": "[4]", "result": "improvement in ocular health"}]}]}
